Source: PMC11116414, “Impact of secretin receptor homo-dimerization on natural ligand binding” (Nature Communications, 2024)

How the values were obtained:
WT SecR [1] = biological target: T1, WT SecR (Homo sapiens, UniProt P47872); test: Fluorescence anisotropy of receptor-bound probes, WT SecR; settings: for Anisotropy: SecR WT, membranes, 50 nM probe, mean ± S.E.M., n = 3; for anisotropy, + GppNHp vs control, in words: WT SecR, 20 and 37 °C
T1 construct: expressed in transfected cells; membranes isolated from CHO-SecR cells
T1 sequence (P47872 23-440): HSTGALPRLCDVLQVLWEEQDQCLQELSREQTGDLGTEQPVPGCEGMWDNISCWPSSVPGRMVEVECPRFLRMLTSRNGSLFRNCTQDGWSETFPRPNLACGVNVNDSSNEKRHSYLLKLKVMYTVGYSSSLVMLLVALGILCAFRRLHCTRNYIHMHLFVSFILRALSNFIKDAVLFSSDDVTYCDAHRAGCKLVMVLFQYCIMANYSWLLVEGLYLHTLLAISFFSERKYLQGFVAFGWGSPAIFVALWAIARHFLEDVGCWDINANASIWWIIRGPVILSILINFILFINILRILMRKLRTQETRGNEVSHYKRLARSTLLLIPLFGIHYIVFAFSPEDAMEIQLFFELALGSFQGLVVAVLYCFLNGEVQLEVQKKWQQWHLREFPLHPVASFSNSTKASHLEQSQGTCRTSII
Description: (§1) Incubations were terminated by separating receptor-bound ligand from free ligand using centrifugation at 25,000 × g for 10 min at 4 °C. The sample pellet was washed again with ice-cold KRH medium and resuspended in KRH medium for fluorescence measurements. The samples were excited at 481 nm and the emission was collected at 521 nm, with a bandwidth of 5 nm at an integration rate of 0.5 nm/s, and fluorescence intensities were collected by constant wavelength single point analysis using SPEX Fluoromax 3 (Horiba Scientific, Piscataway, NJ) with Origin version 8.1.

SecR(G264A,I268A) [2] = biological target: T2, SecR(G264A,I268A) (Homo sapiens, UniProt P47872, G264A/I268A); test: Fluorescence anisotropy of receptor-bound probes, mutant SecR; settings: membranes, 50 nM probe, mean ± S.E.M., n = 3
T2 construct: expressed in transfected cells; membranes isolated from these cells
T2 sequence (P47872 23-440 G264A/I268A): as the sequence (P47872 23-440) above, with G242A, I246A counted along it
Description: as §1

WT SecR [3] = biological target: T1, WT SecR; test: KI collisional fluorescence quenching of receptor-bound probes, WT SecR; settings: KI quencher, mean ± S.E.M., n = 3
Description: as §1
(§2) Fluorescence collisional quenching studies were performed using the hydrophilic quenching reagent, potassium iodide (KI), as described previously. Fluorescence intensities of receptor-bound probes were collected by exciting samples at 481 nm using Fluoromax-3 spectrofluorometer single point measurement by Origin version 8.1. […] The effect of ionic strength was determined by measuring fluorescence intensities in potassium chloride. […] The Stern–Volmer quenching constant, KSV, was calculated from the slope of Fo/F as a function of the quencher concentration [I^−].

SecR(G264A,I268A) [4] = biological target: T2, SecR(G264A,I268A); test: KI collisional fluorescence quenching of receptor-bound probes, mutant SecR; settings: KI quencher, mean ± S.E.M., n = 3
Description: as §1, §2

[5] = biological target: Cys7-[Tyr10]secretin(1-27) agonist probe; test: cysteine trapping, autoradiograph densitometry; settings: intact COS-1 cells, non-reducing 10% SDS-PAGE, n = 3, read off a plot
[6] = biological target: Cys6-[Tyr10]secretin(1-27) agonist probe; test: cysteine trapping, autoradiograph densitometry; settings: intact COS-1 cells, non-reducing 10% SDS-PAGE, n = 5, read off a plot
[7] = biological target: Cys2-[Tyr10]secretin(1-27) agonist probe; test: cysteine trapping, autoradiograph densitometry; settings: ECL2 series; intact COS-1 cells; non-reducing 10% SDS-PAGE; n = 4; read off a plot
[8] = control, 20 °C, KRH pH 7.4, ex 481 nm
[9] = control, 37 °C, KRH pH 7.4, ex 481 nm
[10] = +GppNHp (uncoupled state, 10 µM)
[11] = -GppNHp (active state), 50 nM probe, ex 481/em 521 nm

`CC(C)C[C@H](NC(=O)CNC(=O)[C@H](CCC(N)=O)NC(=O)[C@H](CC(C)C)NC(=O)[C@H](CC(C)C)NC(=O)[C@H](CCCNC(=N)N)NC(=O)[C@H](CCC(N)=O)NC(=O)[C@H](CC(C)C)NC(=O)[C@H](CCCNC(=N)N)NC(=O)[C@H](C)NC(=O)CNC(=O)[C@H](CCC(=O)O)NC(=O)[C@H](CCCNC(=N)N)NC(=O)[C@H](CCCCNC(=O)c1ccc(-c2c3ccc(=N)c(S(=O)(=O)O)c-3oc3c(S(=O)(=O)O)c(N)ccc23)c(C(=O)O)c1)NC(=O)[C@H](CCCNC(=N)N)NC(=O)[C@H](CO)NC(=O)[C@H](CC(C)C)NC(=O)[C@H](CCC(=O)O)NC(=O)[C@H](CO)NC(=O)[C@@H](NC(=O)[C@H](Cc1ccccc1)NC(=O)[C@@H](NC(=O)CNC(=O)[C@H](CC(=O)O)NC(=O)[C@H](CO)NC(=O)[C@@H](N)Cc1c[nH]cn1)[C@@H](C)O)[C@@H](C)O)C(=O)N[C@H](C(N)=O)C(C)C` [(Lys^13-Alexa^488)Sec] was tested, and the Anisotropy (WT SecR [1]; +GppNHp (10 µM), 20 °C) was 0.20 ± 0.02, the Anisotropy (WT SecR [1]; +GppNHp (10 µM), 37 °C) was 0.12 ± 0.01 and the Anisotropy (WT SecR [1]; [8]) was 0.14 ± 0.01. For the same compound, the Anisotropy (WT SecR [1]; [9]) was 0.06 ± 0.01, the “anisotropy, + GppNHp vs control, in words” value (WT SecR [1]) was “higher anisotropy after treatment with GppNHp than the control state” and the Anisotropy (SecR(G264A,I268A) [2]; +GppNHp (10 µM), 20 °C) was 0.20 ± 0.01. The Anisotropy (SecR(G264A,I268A) [2]; +GppNHp (10 µM), 37 °C) was 0.11 ± 0.01, the Anisotropy (SecR(G264A,I268A) [2]; control, 20 °C) was 0.18 ± 0.02 and the Anisotropy (SecR(G264A,I268A) [2]; control, 37 °C) was 0.11 ± 0.01. The “Stern-Volmer quenching constant (Ksv)” value (WT SecR [3]; [10]) was 3.9±02, the “Stern-Volmer quenching constant (Ksv)” value (WT SecR [3]; [11]) was 7.9±0.6 and the “Stern-Volmer quenching constant (Ksv)” value (SecR(G264A,I268A) [4]; [10]) was 4.5±0.9. The “Stern-Volmer quenching constant (Ksv)” value (SecR(G264A,I268A) [4]; -GppNHp (active state)) was 5.2±0.4.
In the case of `CC(C)C[C@H](NC(=O)CNC(=O)[C@H](CCC(N)=O)NC(=O)[C@H](CC(C)C)NC(=O)[C@H](CCCCNC(=O)c1ccc(-c2c3ccc(=N)c(S(=O)(=O)O)c-3oc3c(S(=O)(=O)O)c(N)ccc23)c(C(=O)O)c1)NC(=O)[C@H](CCCNC(=N)N)NC(=O)[C@H](CCC(N)=O)NC(=O)[C@H](CC(C)C)NC(=O)[C@H](CCCNC(=N)N)NC(=O)[C@H](C)NC(=O)CNC(=O)[C@H](CCC(=O)O)NC(=O)[C@H](CCCNC(=N)N)NC(=O)[C@H](CC(C)C)NC(=O)[C@H](CCCNC(=N)N)NC(=O)[C@H](CO)NC(=O)[C@H](CC(C)C)NC(=O)[C@H](CCC(=O)O)NC(=O)[C@H](CO)NC(=O)[C@@H](NC(=O)[C@H](Cc1ccccc1)NC(=O)[C@@H](NC(=O)CNC(=O)[C@H](CC(=O)O)NC(=O)[C@H](CO)NC(=O)[C@@H](N)Cc1c[nH]cn1)[C@@H](C)O)[C@@H](C)O)C(=O)N[C@H](C(N)=O)C(C)C` [(Lys^22-Alexa^488)Sec], the Anisotropy (WT SecR [1]; +GppNHp (10 µM), 20 °C) is reported as 0.20 ± 0.02, the Anisotropy (WT SecR [1]; +GppNHp (10 µM), 37 °C) is reported as 0.12 ± 0.01 and the Anisotropy (WT SecR [1]; [8]) is reported as 0.14 ± 0.01. For the same compound, the Anisotropy (WT SecR [1]; [9]) was 0.06 ± 0.01, the “anisotropy, + GppNHp vs control, in words” value (WT SecR [1]) was “higher anisotropy after treatment with GppNHp than the control state” and the Anisotropy (SecR(G264A,I268A) [2]; +GppNHp (10 µM), 20 °C) was 0.19 ± 0.01. The Anisotropy (SecR(G264A,I268A) [2]; +GppNHp (10 µM), 37 °C) was 0.12 ± 0.01, the Anisotropy (SecR(G264A,I268A) [2]; control, 20 °C) was 0.18 ± 0.01 and the Anisotropy (SecR(G264A,I268A) [2]; control, 37 °C) was 0.10 ± 0.01. For the same compound, the “Stern-Volmer quenching constant (Ksv)” value (WT SecR [3]; [10]) was 4.5±0.2, the “Stern-Volmer quenching constant (Ksv)” value (WT SecR [3]; [11]) was 8.9±1.0 and the “Stern-Volmer quenching constant (Ksv)” value (SecR(G264A,I268A) [4]; [10]) was 4.3±0.2. The “Stern-Volmer quenching constant (Ksv)” value (SecR(G264A,I268A) [4]; -GppNHp (active state)) was 6.1±0.3.
`CC(C)C[C@H](NC(=O)CNC(=O)[C@H](CCC(N)=O)NC(=O)[C@H](CC(C)C)NC(=O)[C@H](CC(C)C)NC(=O)[C@H](CCCNC(=N)N)NC(=O)[C@H](CCC(N)=O)NC(=O)[C@H](CC(C)C)NC(=O)[C@H](CCCNC(=N)N)NC(=O)[C@H](C)NC(=O)CNC(=O)[C@H](CCC(=O)O)NC(=O)[C@H](CCCNC(=N)N)NC(=O)[C@H](CC(C)C)NC(=O)[C@H](CCCNC(=N)N)NC(=O)[C@H](CO)NC(=O)[C@H](CC(C)C)NC(=O)[C@H](CCC(=O)O)NC(=O)[C@H](CO)NC(=O)[C@@H](NC(=O)[C@H](Cc1ccccc1)NC(=O)[C@@H](NC(=O)CNC(=O)[C@H](CC(=O)O)NC(=O)[C@H](CO)NC(=O)[C@@H](N)Cc1c[nH]cn1)[C@@H](C)O)[C@@H](C)O)C(=O)N[C@H](C(=O)NCC(=O)N[C@@H](CSC1CC(=O)N(CCCCCNC(=O)c2ccc(-c3c4ccc(=N)c(S(=O)(=O)O)c-4oc4c(S(=O)(=O)O)c(N)ccc34)c(C(=O)O)c2)C1=O)C(N)=O)C(C)C` (stereo partly drawn) [Sec-Gly^28-(Cys^29-Alexa^488)] was tested, and the Anisotropy (WT SecR [1]; +GppNHp (10 µM), 20 °C) was 0.13 ± 0.01, the Anisotropy (WT SecR [1]; +GppNHp (10 µM), 37 °C) was 0.08 ± 0.01 and the Anisotropy (WT SecR [1]; [8]) was 0.13 ± 0.01. The Anisotropy (WT SecR [1]; [9]) was 0.08 ± 0.01, the Anisotropy (SecR(G264A,I268A) [2]; +GppNHp (10 µM), 20 °C) was 0.15 ± 0.01 and the Anisotropy (SecR(G264A,I268A) [2]; +GppNHp (10 µM), 37 °C) was 0.1 ± 0.01. For the same compound, the Anisotropy (SecR(G264A,I268A) [2]; control, 20 °C) was 0.13 ± 0.01, the Anisotropy (SecR(G264A,I268A) [2]; control, 37 °C) was 0.09 ± 0.01 and the “Stern-Volmer quenching constant (Ksv)” value (WT SecR [3]; [10]) was 4.9±0.4. The “Stern-Volmer quenching constant (Ksv)” value (WT SecR [3]; [11]) was 6.2±0.7, the “Stern-Volmer quenching constant (Ksv)” value (SecR(G264A,I268A) [4]; [10]) was 4.2±0.8 and the “Stern-Volmer quenching constant (Ksv)” value (SecR(G264A,I268A) [4]; -GppNHp (active state)) was 5.6±1.1.
In the case of “human wild type secretin receptor (SecR WT) (from UniProt P47872) G264A; I268A; A359C”, the other: receptor labeling (% of maximum signal) (% of maximum signal) ([5]; ECL3 series) is reported as 85.
For “human wild type secretin receptor (SecR WT) (from UniProt P47872) G264A; I268A; I288C”, the other: receptor labeling (% of maximum signal) (% of maximum signal) ([5]; ECL2 series) was 68.
With “human wild type secretin receptor (SecR WT) (from UniProt P47872) G264A; I268A; L374C” the other: receptor labeling (% of maximum signal) (% of maximum signal) ([5]; ECL3 series) was 88 and the other: receptor labeling (% of maximum signal) (% of maximum signal) ([6]; ECL3 series) was 77.
With “human wild type secretin receptor (SecR WT) (from UniProt P47872) G264A; I268A; W295C” the other: receptor labeling (% of maximum signal) (% of maximum signal) ([5]; ECL2 series) was 83 and the other: receptor labeling (% of maximum signal) (% of maximum signal) [7] was 93.
For “human wild type secretin receptor (SecR WT) (from UniProt P47872) G264A; I268A; W296C”, the other: receptor labeling (% of maximum signal) (% of maximum signal) ([6]; ECL2 series) was 68.
